Source: article PMC4704049, “Potential Dual Role of Eugenol in Inhibiting Advanced Glycation End Products in Diabetes: Proteomic and Mechanistic Insights” (Scientific Reports, 2016)

Biological target: T1, bovine serum albumin (BSA) (Bos taurus, UniProt P02769)
T1 construct: gene ALB
Test: intrinsic fluorescence quenching (eugenol […])
Type: binding

T1 sequence (P02769 25-607): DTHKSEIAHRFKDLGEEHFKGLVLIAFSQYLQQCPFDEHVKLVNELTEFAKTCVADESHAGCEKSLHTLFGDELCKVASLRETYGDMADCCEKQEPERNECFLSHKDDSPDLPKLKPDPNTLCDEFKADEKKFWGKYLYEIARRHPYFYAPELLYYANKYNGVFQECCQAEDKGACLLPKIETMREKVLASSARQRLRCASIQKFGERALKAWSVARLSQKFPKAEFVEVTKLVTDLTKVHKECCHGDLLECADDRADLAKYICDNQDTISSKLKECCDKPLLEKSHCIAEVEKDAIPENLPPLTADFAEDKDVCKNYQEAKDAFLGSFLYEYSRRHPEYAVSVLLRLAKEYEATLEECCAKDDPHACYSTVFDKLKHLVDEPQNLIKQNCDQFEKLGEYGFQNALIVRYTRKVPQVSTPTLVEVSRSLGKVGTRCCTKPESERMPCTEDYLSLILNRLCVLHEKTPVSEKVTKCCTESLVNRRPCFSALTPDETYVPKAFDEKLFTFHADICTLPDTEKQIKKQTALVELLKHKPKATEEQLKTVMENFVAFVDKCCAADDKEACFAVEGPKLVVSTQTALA

C=CCc1ccc(O)c(OC)c1 [EUG, eugenol]
intrinsic fluorescence quenching (eugenol 1-50 mM): In the intrinsic fluorescence assay, it was evident that eugenol binds to BSA in a concentration dependent manner
